Measurements published in patent US8987201B2, “Black bear parathyroid hormone and methods of using black bear parathyroid hormone” (Michigan Technological University, priority 2009, dated 2015).

How the values were obtained:
[1] = test system: human fetal osteoblasts (hFOB); experiment: Serum starvation cell death in human fetal osteoblasts (trypan blue); type: cell-based; conditions: 100 nM for 1 hour before serum starvation for 24 hours, preliminary studies, p<0.0001
Experimental: All PTH peptides used in the current study attenuated apoptotic signaling induced by serum starvation in vitro (FIG. 19). bbPTH 1-34 reduced apoptotic signaling in pre-osteoblastic cells more than human PTH (FIG. 19). Recently, we found similar results with preliminary studies in human fetal osteoblasts (hFOB). Serum starvation for 24 hours increased cell death in hFOB (confirmed via trypan blue staining), but pretreatment of hFOB cells with 100 nM PTH 1-34 or 1-84 for 1 hour before starvation reduced percent cell death (percentage change in cell death compared to vehicle pretreatment, hPTH 1-34: −18%, bbPTH 1-34: −25%, hPTH 1-84: −17%, bbPTH 1-84: −21%; p<0.0001; data not shown). […] However, although bbPTH 1-84 was less anti-apoptotic than bbPTH 1-34 and hPTH 1-34 in vitro (FIG. 19) it caused the greatest increases in cortical and trabecular bone mass in the in vivo studies (Table 1, Table 2).

[2] = test system: ovariectomized (OVX) Sprague-Dawley rats; experiment: In vivo rat OVX dose response study: bone μCT and bone strength
Experimental: Ninety female, 3-month old Sprague-Dawley rats were obtained. Eighty (80) of the rats were ovariectomized (OVX) and ten (10) underwent a sham OVX procedure (sham OVX) in which the ovaries were left in the animal. The OVX animals were randomly assigned into groups of ten for further experiments.
Following the actual or sham OVX procedure, all animals were untreated for 6 weeks to allow bone loss. After the 6 week period of bone loss, groups of animals were injected for a six- or eight-week period (daily for five days per week) with vehicle (saline) or 3, 10, or 30 μg/kg bear or human PTH1-34. […] The sham OVX group as well as one group of actual OVX rats were euthanized at six weeks while the remaining animals were euthanized at fourteen weeks following the OVX procedure. Samples were obtained from the euthanized animals for further analysis.
Three-dimensional images of bones were obtained using micro-computed tomography (μCT). The three-dimensional images were then used to quantify bone parameters, as explained below. The measurements were conducted on a 1.6 mm-thick region that begins at a position 2 mm from the growth plate (FIG. 8). Bone samples were obtained and analyzed from sham (FIG. 9A, “Sham OVX 6 weeks”) and actual (FIG. 9B, “OVX 6 weeks”) OVX rats that were euthanized at six weeks after the procedure, as well as a group of actual OVX rats that were euthanized at fourteen weeks after the procedure (FIG. 9C, “OVX 14 weeks”). The rats in the OVX 14 group were given injections of vehicle (saline) for 8 weeks following the 6 week bone loss period, in parallel with the PTH1-34 injections for eight weeks (FIGS. 9D, 9E, and 9F). The samples shown in FIGS. 9D, 9E, and 9F were obtained from rats that were injected for eight weeks following the 6 week bone loss period, with 3, 10, or 30 μg/kg black bear PTH1-34 (“bbPTH”), respectively.

**Q.** Which “percentage change in cell death compared to vehicle pretreatment” value [1] does the source give for human PTH 1-34 [hPTH 1-34] here?
**A.** Its value is −18%.

**Q.** And the “average thickness of the trabecular struts (Tb.Th) compared to vehicle-treated controls” value ([2]; OVX rats)?
**A.** The value was “significantly (p<0.05) increased”.

**Q.** And the “increasing tibial cortical bone volume (BV), human vs bear” value ([2]; OVX rats)?
**A.** The value was “better than bear PTH1-34”.

**Q.** And the “trabecular bone mineralization (M.Dn) vs vehicle (saline) alone” value ([2]; OVX rats)?
**A.** Its value is “significantly (p<0.05) greater trabecular bone mineralization”.

**Q.** What about the “bone mineral apparent density, hPTH vs bbPTH” value ([2]; OVX rats, 30 μg/kg) of the same substance?
**A.** Its value is “significantly higher (p<0.05)”.

**Q.** What about the “bone mineral apparent density (App.Dn) vs vehicle (saline) alone” value ([2]; OVX rats, 3, 10, or 30 μg/kg) of the same substance?
**A.** The value was “significantly higher (p<0.05)”.

**Q.** And the “bone volume as a fraction of total volume (BV/TV) vs vehicle (saline) alone” value ([2]; OVX rats, 3, 10, or 30 μg/kg)?
**A.** Its value is “significantly (p<0.05) greater bone volume fraction than treatment with vehicle (saline) alone at all three levels tested”.

**Q.** What about the “bone volume fraction, human PTH vs bear PTH” value ([2]; OVX rats, highest dose of 30 μg/kg) of the same substance?
**A.** The value was “significantly (p<0.05) greater”.

**Q.** And the “tibial cortical porosity relative to vehicle (saline) alone” value ([2]; OVX rats, middle (10 μg/kg) and higher doses (30 μg/kg))?
**A.** Its value is “significantly (p<0.05) decreased”.

**Q.** And the “femoral cortical bone strength relative to vehicle-treated controls” value ([2]; OVX rats, only higher doses (30 μg/kg))?
**A.** Its value is “significant (p<0.05) increases”.
